Data taken from patent publication US10016422B2, “Nanocarrier drug delivery platform” (Oregon State University, priority 2015, dated 2018).
Values after ≈ are worked out from the molar mass of the structure shown.

Test: Intrinsic aqueous solubility and solubility increase in nanoparticles
Assay type: physicochemical
Details: for solubility: aqueous medium; for increase of solubility by incorporation into the nanoparticles: versus intrinsic aqueous solubility

solubility [µg/mL]	increase of solubility by incorporation into the nanoparticles [fold]	SMILES
243 (≈ 791 µM)	8	O=c1cc(N2CCOCC2)oc2c(-c3ccccc3)cccc12 [LY, LY294002]
6 (≈ 9.75 µM)	221	CC(=O)Nc1cccc(-n2c(=O)n(C3CC3)c(=O)c3c(Nc4ccc(I)cc4F)n(C)c(=O)c(C)c32)c1 [TRA, trametinib]

Further lines, the compound ahead of its results:

SMILES	solubility [µg/mL]	increase of solubility by incorporation into the nanoparticles [fold]
CC(C)(C)c1nc(-c2cccc(NS(=O)(=O)c3c(F)cccc3F)c2F)c(-c2ccnc(N)n2)s1 [DAB, dabrafenib]	1 (≈ 1.92 µM)	1000
CC(=O)O[C@@]12CO[C@@H]1C[C@H](O)[C@@]1(C)C(=O)[C@H](O)C3=C(C)[C@@H](OC(=O)[C@H](O)[C@@H](NC(=O)OC(C)(C)C)c4ccccc4)C[C@@](O)([C@@H](OC(=O)c4ccccc4)[C@H]21)C3(C)C [DTX, docetaxel]		455
CO[C@H]1C[C@@H]2CC[C@@H](C)[C@@](O)(O2)C(=O)C(=O)N2CCCC[C@H]2C(=O)O[C@H]([C@H](C)C[C@@H]2CC[C@@H](OCCO)[C@H](OC)C2)CC(=O)[C@H](C)/C=C(\C)[C@@H](O)[C@@H](OC)C(=O)[C@H](C)C[C@H](C)/C=C/C=C/C=C/1C [EVR, everolimus]	9.6 (≈ 10 µM)	201
